According to PubChem BioAssay (NCI):
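All cell lines were grown in 96-well plates and treated with compound for 48 hours. The concentration for 50% growth inhibition is given as GI50. TGI denotes the concentration required for complete inhibition of growth.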

Columns and labels:
Test in all cases: growth of human tumour cells (NCI), 48 h
OVCAR-8 ovarian = system: OVCAR-8 ovarian
SK-MEL-2 melanoma = system: SK-MEL-2 melanoma
HCC-2998 colon = system: HCC-2998 colon
LOX IMVI melanoma = system: LOX IMVI melanoma
A498 renal = system: A498 renal
HL-60(TB) leukemia = system: HL-60(TB) leukemia
OVCAR-3 ovarian = system: OVCAR-3 ovarian
KM12 colon = system: KM12 colon
SK-OV-3 ovarian = system: SK-OV-3 ovarian
NCI-H460 lung = system: NCI-H460 lung

SMILES | GI50 (OVCAR-8 ovarian) | TGI (OVCAR-8 ovarian) | GI50 (SK-MEL-2 melanoma) | TGI (SK-MEL-2 melanoma) | GI50 (HCC-2998 colon) | TGI (HCC-2998 colon) | GI50 (LOX IMVI melanoma) | TGI (LOX IMVI melanoma) | GI50 (A498 renal) | TGI (A498 renal) | TGI (HL-60(TB) leukemia) | TGI (OVCAR-3 ovarian) | TGI (KM12 colon) | TGI (SK-OV-3 ovarian) | TGI (NCI-H460 lung) | GI50 (HL-60(TB) leukemia) | GI50 (OVCAR-3 ovarian) | GI50 (KM12 colon) | GI50 (SK-OV-3 ovarian) | GI50 (NCI-H460 lung)
CNC(=O)c1cc(Oc2cccc3nc(NC(=O)Nc4ccc(F)cc4F)ccc23)ccn1 | 1.65 µM | > 50 µM | > 50 µM | > 50 µM | > 50 µM | > 50 µM | 1.68 µM | > 50 µM | 0.418 µM | 23.3 µM |  |  |  |  |  |  |  |  |  | 
COc1ccc(/C=C(\C2=NC(=O)CS2)c2nc3ccccc3[nH]2)cc1 |  | > 100 µM |  | 62.9 µM |  | 49.7 µM |  |  |  | > 100 µM | > 100 µM | 52.3 µM | > 100 µM | 60 µM | > 100 µM |  |  |  |  | 
c1ccc(Sc2nc(Sc3ccccc3)nc(Sc3ccccc3)n2)cc1 |  |  |  | > 100 µM |  | 37.8 µM |  | > 100 µM |  | 86.8 µM | > 100 µM | 34.5 µM | 29.4 µM | > 100 µM | > 100 µM |  |  |  |  | 
CN1CCN(Cn2nc(-c3cc(F)c(Cl)cc3Cl)oc2=S)CC1 |  |  | > 100 µM | > 100 µM | 55.9 µM | > 100 µM | 20.3 µM | 45.6 µM |  |  | > 100 µM | > 100 µM | > 100 µM | > 100 µM | > 100 µM | 78.5 µM | 37.4 µM | 42.7 µM | 56.9 µM | 41.2 µM
COc1cccc2c1C(=O)c1c(O)c3c(c(O)c1C2=O)CC(O)(C(C)=O)CC3O (configuration not stated) |  | 10.6 µM |  | 16.9 µM |  | 11.1 µM |  | 8.7 µM |  | 17.2 µM | 26.5 µM | 23.8 µM | 38.5 µM | 36.9 µM | 7.42 µM |  |  |  |  | 
CN1C(=O)[C@@H]2[C@@H]3c4ccccc4N[C@@H]3c3[nH]c4ccccc4c3[C@@H]2C1=O |  | 63.1 µM |  | 33.1 µM |  | 40.3 µM |  | 46.6 µM |  | 65.3 µM |  | 40 µM |  | 66.7 µM | 31.4 µM |  |  |  |  | 
Cc1ccc(O)cc1 (tested in a mixture with another compound) |  | > 100 µM |  | > 100 µM |  | > 100 µM |  | > 100 µM |  | > 100 µM | > 100 µM | > 100 µM | > 100 µM | > 100 µM | > 100 µM |  |  |  |  | 
CN(C)CCNC(=O)c1cccc2[nH]c(-c3ccc(Cl)cc3)nc12 |  | 20.8 µM |  | 26.5 µM |  | 16.9 µM |  | 13.8 µM |  | 24 µM | 12 µM | 27.7 µM | 20.9 µM | 25.1 µM | 13.2 µM |  |  |  |  | 
O=P(Nc1cccc(Cl)c1)(Oc1ccccc1)N(CCCl)CCCl (configuration not stated) |  | 37.9 µM |  | 25.6 µM |  | 28.6 µM |  |  |  | 27.6 µM | > 100 µM | 35.7 µM | 28.6 µM | > 100 µM |  |  |  |  |  | 
Cc1cc2nc(CC(C(F)(F)F)C(F)(F)F)oc2cc1C |  | 3.23 µM |  | 9.85 µM |  | 11.8 µM |  | 1.44 µM |  | 26.3 µM | 12.5 µM | 14.2 µM | 10.3 µM | > 44.4 µM | 15.3 µM |  |  |  |  | 
COCC1N=C(c2cc(OC)c(OC)c(OC)c2-c2cc3c(cc2[C@@H](C)O)OCO3)O[C@H]1c1ccccc1 (some centres not stated) |  | > 100 µM |  | > 87.7 µM |  | > 100 µM |  | > 100 µM |  | > 100 µM | > 100 µM | > 100 µM | > 100 µM | > 100 µM | > 100 µM |  |  |  |  | 
Cc1ccc(S(=O)(=O)NCCCSCCO)cc1 |  | > 100 µM |  |  |  | > 100 µM |  | > 100 µM |  | > 100 µM | > 100 µM | > 100 µM | > 100 µM | > 100 µM | > 100 µM |  |  |  |  | 
O=c1[nH]c(-c2ccc(Cl)cc2)cc2ccsc12 |  | > 100 µM |  | > 100 µM |  | 9.61 µM |  | > 100 µM |  |  | > 100 µM | 4.26 µM | > 100 µM | 77.9 µM | > 100 µM |  |  |  |  | 
CCOC(=O)C1=C(C)N(c2ccc(Cl)cc2)C2(O)C=CC(Nc3ccc(Cl)cc3)=C3C(=O)N(c4ccccc4)C(=O)C312 (configuration not stated) |  | 18.1 µM |  | 10.5 µM |  |  |  | 4.36 µM |  | 9.33 µM | 23.4 µM | 2.09 µM | 23.1 µM | 24.9 µM | 13.7 µM |  |  |  |  | 
